Experimental data taken from patent US6479662B2, “Antitumor dibenzofluorene derivatives” (Board of Regents, The University of Texas System, priority 1998, dated 2002).
Entries after “also recorded” stand apart in the source; their conditions may differ.

Key:
BRO human melanoma = test: In vitro cytotoxicity, MTT assay, 72 h continuous exposure; format: cell-based; details: average over runs, value above 50 = 50% inhibition not achieved at 50 μg/ml
Method: (§1) Every dibenzofluorene derivative was tested, as will be described below, against six to eight cultured, tumor cell lines of human and/or animal origin, at least half of which were selected from the NCI panel of test tumors. In each experiment, Adriamycin (ADR) was used as a maximally positive control.
(§2) Data are IC50 values (MTT assay) reported as μg/ml for 72 hours continuous exposure to the drug. Drugs were prepared in DMSO:PEG300 (1:1). Further, dilutions were made in a cell culture medium with fetal bovine serum.
(§3) Compounds were evaluated for solubility characteristics in vehicles which would be appropriate for use in cell culture. The compounds were added to the cell lines under continuous culture for 72 hours. Inhibition of growth relative to control cell culture was determined by the MTT method at the end of 72 hours. This is a test of the relative ability of a compound to inhibit cell growth not survival. However, inhibition of growth may reflect cell death and/or cytostasis.

[1] = system: P388/0 murine lymphatic leukemia; test: as above; format: cell-based; details: average over runs, value above 50 = 50% inhibition not achieved at 50 μg/ml
Method: as §1, §2, §3

[2] = system: HT-29 human colon adenocarcinoma; test: as above; format: cell-based; details: average over runs, value above 50 = 50% inhibition not achieved at 50 μg/ml
Method: as §1, §2, §3

[3] = system: HL-60 human promyelocytic leukemia; test: as above; format: cell-based; details: average over runs, value above 50 = 50% inhibition not achieved at 50 μg/ml
Method: as §1, §2, §3

[4] = system: OVCAR 3 human ovarian carcinoma; test: as above; format: cell-based; details: average over runs, value above 50 = 50% inhibition not achieved at 50 μg/ml
Method: as §1, §2, §3

[5] = system: MCF-7 human breast carcinoma; test: as above; format: cell-based; details: average over runs, value above 50 = 50% inhibition not achieved at 50 μg/ml
Method: as §1, §2, §3

[6] = system: six to eight cultured tumor cell lines; test: In vitro cytotoxicity against the panel of tumor lines (overall activity grouping); format: cell-based, human and/or animal; details: for change in activity relative to Tx-37 (in words): structural modification of Tx-37; for anti-tumor activity (in words): summary over the tumor lines; for change in activity relative to Tx-38 (in words): structural modification of Tx-38; for activity group: grouped as determined by the majority of the results over all tumor lines
Method: as §1, §2
Additional tumor lines against which the drugs were tested in certain series included L1210 (leukemia), PC3 (prostate) and several others.
as §3
ADR invariably produced the described anti-tumor effect against all tumor lines at concentrations lower than 1 μg/ml of culture media. The effect of the Tx-compounds was divided into five activity groups as described below. In all cases, if activity against a single tumor line differed radically from that against all others, notation was made of this specificity but the agent was grouped as determined by the majority of the results.

Compound: CN1CCN(C(=O)CCC(=O)Nc2cc3c(c4ccccc24)-c2ccc4ccccc4c2C3=O)CC1 [Tx-50]
- average IC50 BRO (BRO human melanoma): 11.2 µg/mL
- average IC50 P388/0 [1]: 3.7 µg/mL
- average IC50 HT-29 [2]: 10.0 µg/mL
- average IC50 HL-60 [3]: 4.0 µg/mL
- average IC50 OVCAR-3 [4]: 6.6 µg/mL
- average IC50 MCF-7 [5]: 18.1 µg/mL
- change in activity relative to Tx-37 (in words) [6]: slight diminution in activity
- anti-tumor activity (in words) [6]: significant activities

Compound: O=C(CCC(=O)N1CCCCC1)Nc1cc2c(c3ccccc13)-c1ccc3ccccc3c1C2=O [Tx-51]
- average IC50 BRO (BRO human melanoma): 47.2 µg/mL
- average IC50 HL-60 [3]: 32.0 µg/mL
- average IC50 OVCAR-3 [4]: 16.2 µg/mL
- average IC50 MCF-7 [5]: 27.0 µg/mL
- anti-tumor activity (in words) [6]: little or no activity

Compound: O=C(CCC(=O)N1CCCCC1)Nc1cc2c(c3ccccc13)-c1ccc3ccccc3c1C2 [Tx-38]
- average IC50 BRO (BRO human melanoma): 46.4 µg/mL
- average IC50 P388/0 [1]: 42.9 µg/mL
- average IC50 HT-29 [2]: 34.4 µg/mL
- average IC50 HL-60 [3]: 14.9 µg/mL
- average IC50 OVCAR-3 [4]: 39.5 µg/mL
- average IC50 MCF-7 [5]: 22.8 µg/mL
- anti-tumor activity (in words) [6]: no significant anti-tumor activity; also recorded: little or no activity

Compound: CN1CCN(C(=O)CCC(=O)Nc2cc3c(c4ccccc24)-c2ccc4ccccc4c2C3)CC1.Cl [Tx-49, N-[11′-(13′H-Dibenzo[a,g]-fluorenyl)]-4-(4′N methyl-piperazinyl hydrochloride)-butane-1,4-dicarboxiamide]
- average IC50 BRO (BRO human melanoma): 2.5 µg/mL
- average IC50 P388/0 [1]: 3.1 µg/mL
- average IC50 HT-29 [2]: 2.5 µg/mL
- average IC50 HL-60 [3]: 2.5 µg/mL
- average IC50 OVCAR-3 [4]: 2.8 µg/mL
- average IC50 MCF-7 [5]: 5.7 µg/mL
- change in activity relative to Tx-37 (in words) [6]: minor change in the activity

Compound: O=C(CCC(=O)N1CCCCC1)Nc1cc2c(c3ccccc13)-c1ccc3ccccc3c1C2O (centres unmarked) [Tx-67]
- average IC50 BRO (BRO human melanoma): 14.7 µg/mL
- average IC50 P388/0 [1]: 9.2 µg/mL
- average IC50 HL-60 [3]: 5.6 µg/mL
- average IC50 OVCAR-3 [4]: 8.8 µg/mL
- average IC50 MCF-7 [5]: 8.9 µg/mL
- change in activity relative to Tx-38 (in words) [6]: greatly increased the activity

Compound: CN1CCN(C(=O)CCC(=O)Nc2cc3c(c4ccccc24)-c2ccc4ccccc4c2C3O)CC1 (centres unmarked) [Tx-66]
- average IC50 BRO (BRO human melanoma): 6.0 µg/mL
- average IC50 P388/0 [1]: 2.1 µg/mL
- average IC50 HL-60 [3]: 2.0 µg/mL
- average IC50 OVCAR-3 [4]: 4.2 µg/mL
- average IC50 MCF-7 [5]: 5.9 µg/mL
- change in activity relative to Tx-37 (in words) [6]: minor change in the activity

Compound: CN1CCN(C(=O)CCC(=O)Nc2cc3c(c4ccccc24)-c2ccc4ccccc4c2C3)CC1 [Tx-37, N-[11′-(13′H-Dibenzo[a,g]-fluorenyl)]-4-(4′N methyl-piperazinyl)-butane-1,4-dicarboxiamide]
- average IC50 BRO (BRO human melanoma): 1.8 µg/mL
- average IC50 P388/0 [1]: 2.0 µg/mL
- average IC50 HT-29 [2]: 1.9 µg/mL
- average IC50 HL-60 [3]: 1.6 µg/mL
- average IC50 OVCAR-3 [4]: 1.9 µg/mL
- average IC50 MCF-7 [5]: 3.0 µg/mL
- anti-tumor activity (in words) [6]: consistent, highly positive effects; also recorded: most active compound; also recorded: significant activities

Compound: O=C(CCC(=O)N1CCCCC1)Nc1ccc2c(c1)Cc1ccccc1-2 [Tx-69]
- average IC50 P388/0 [1]: 41.5 µg/mL
- average IC50 MCF-7 [5]: 28.9 µg/mL

Compound: CN1CCN(C(=O)C=CC(=O)Nc2cc3c(c4ccccc24)-c2ccc4ccccc4c2C3)CC1 [Tx-47]
- average IC50 BRO (BRO human melanoma): 1.2 µg/mL
- average IC50 P388/0 [1]: 15.4 µg/mL
- average IC50 HT-29 [2]: 16.7 µg/mL
- average IC50 HL-60 [3]: 1.2 µg/mL
- average IC50 OVCAR-3 [4]: 1.1 µg/mL
- average IC50 MCF-7 [5]: 20.2 µg/mL
- activity group [6]: GROUP C (These agents were effective against one-third to one-half of all tumor lines tested at levels less than 10 μg/ml)
- change in activity relative to Tx-37 (in words) [6]: reduced its activity significantly

Compound: COc1cccc2c1C(=O)c1c(O)c3c(c(O)c1C2=O)C[C@@](O)(C(=O)CO)C[C@@H]3O[C@H]1C[C@H](N)[C@H](O)[C@H](C)O1 [ADR, Adriamycin, reference compound]
- IC50 ([6]; Homo sapiens, all tumor lines, μg/ml of culture media, positive control, read-out: concentration producing the described anti-tumor effect against all tumor lines): < 1 µg/mL

Compound: O=C(C=CC(=O)N1CCCCC1)Nc1cc2c(c3ccccc13)-c1ccc3ccccc3c1C2 [Tx-48, N-[11′-13′H-Dibenzo[a,g]-fluorenyl]-4-(1′-piperidinyl)-but-2-ene-1,4-dicarboxiamide]
- average IC50 BRO (BRO human melanoma): 22.6 µg/mL
- average IC50 HL-60 [3]: 30.1 µg/mL
- average IC50 OVCAR-3 [4]: 23.4 µg/mL
- average IC50 MCF-7 [5]: 18.3 µg/mL
- change in activity relative to Tx-38 (in words) [6]: little or no change

Compound: CN1CCN(C(=O)CCC(=O)Nc2ccc3c(c2)Cc2ccccc2-3)CC1 [Tx-68, N-[2′-(9′H-fluorenyl)]-4-(4′N methyl-piperazinyl)-butane-1,4-dicarboxiamide]
- average IC50 OVCAR-3 [4]: 31.7 µg/mL
- average IC50 MCF-7 [5]: 18.2 µg/mL
- activity group [6]: GROUP E (These agents produced some anti-tumor effect at doses above 10 μg/ml but less than 20 μg/ml)
